# Data as given in patent US12419847B2, “Composition and method for attenuating neuroinflammation, amyloidopathy and tauopathy” (Trustees of Dartmouth College, priority 2020, dated 2025).
# Legend:
# ACAT = ACAT enzyme activity in mouse tissue homogenates after IV injection of nanoparticles; type: in vivo; settings: delivered IV in nanoparticles
# Method: A1^−/− refers to Acat1^−/− mouse. ACAT activity was determined by using a mixed liposome assay. N=4 for WT mice age (2-3 months) and gender matched. N=1 for A1^−/− mouse. N.S., not significant; P<0.05*, P<0.01**, P<0.001***. Analysis by two-way ANOVA. The significance is relative to vehicle-treated group.
# A1^−/− refers to Acat1^−/− mouse. Note, the major isoenzyme in mouse liver is ACAT2. ACAT activity was determined without or with perfusion as indicated. N=3-4 for WT mice age- and gender-matched. N=1 for A1^−/− mouse. N.S., not significant; P<0.05*, P<0.01**, P<0.001***. Two-way ANOVA. The significance is relative to vehicle-treated group.
# Mice were perfused before brains were isolated. N=2-3 WT mice/group. N=1 A1^−/− mouse. Statistical analysis, 2-way ANOVA. *P<0.05; **P<0.01; ***P<0.001.
# As a component of the above-referenced analysis, a portion of the mice were treated with perfusion (to remove blood contamination from tissues).
# ACAT1 [1] = biological target: T1, ACAT1 (Homo sapiens (Human), UniProt P35610); assay: human ACAT1 IC50 by mixed liposome assay
# T1 sequence (P35610 whole entry): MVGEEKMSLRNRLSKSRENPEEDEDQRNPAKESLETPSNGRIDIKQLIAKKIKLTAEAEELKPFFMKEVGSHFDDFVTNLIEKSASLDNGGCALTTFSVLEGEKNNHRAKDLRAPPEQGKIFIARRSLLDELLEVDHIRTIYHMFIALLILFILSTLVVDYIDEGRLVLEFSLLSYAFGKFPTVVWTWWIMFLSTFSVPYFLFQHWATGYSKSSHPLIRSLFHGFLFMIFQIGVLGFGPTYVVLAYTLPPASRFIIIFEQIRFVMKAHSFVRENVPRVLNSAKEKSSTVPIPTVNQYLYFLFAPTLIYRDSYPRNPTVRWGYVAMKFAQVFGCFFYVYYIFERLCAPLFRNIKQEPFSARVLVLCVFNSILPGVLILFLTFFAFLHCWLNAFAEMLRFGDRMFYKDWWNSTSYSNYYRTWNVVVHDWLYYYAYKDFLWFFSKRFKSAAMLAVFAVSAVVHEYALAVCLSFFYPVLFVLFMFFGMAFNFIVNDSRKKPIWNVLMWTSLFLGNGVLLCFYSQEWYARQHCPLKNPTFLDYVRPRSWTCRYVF
# Method: In vitro Mixed Liposomal ACAT Activity Assay. […] Lysed cells were collected and aliquoted into pre-chilled tubes containing the liposomal mixture of taurocholate, phosphatidylcholine, and cholesterol. Tubes were vortexed and kept on ice for 5 minutes. Samples were then incubated in a 37° C. shaking water bath with ^3H-oleoyl CoA added for 10 minutes. The assay was stopped by adding CHCl3:MeOH (2:1). Lipids were extracted and analyzed by the same TLC method described herein.
# IL-4Rα [2] = assay: IL-4Rα protein content in HMC3 cells (western blot); type: cell-based, human; settings: for IL-4Rα protein content: human myelin debris-treated HMC3 cells, co-incubation
# Method: . Exp. 130:56322) for 21 hours.
# . […] Protein was isolated and analyzed by western blot analysis. Vinculin was the loading control. […]; **P<0.01.
# Subsequently, myelin debris from human brains was prepared and it was observed that the cholesterol/protein ratio, as well as the protein composition between mouse myelin debris and human myelin debris, were very similar.
# ABCA1 = ABCA1 protein content in human myelin debris-treated HMC3 cells; type: cell-based; settings: HMC3, human myelin debris 25 μg/mL cholesterol, 0.5 μM, 24 hours
# Method: […]. Afterward, cells were harvested for western blot analyses. Lysates of HEK293 cells and lysates of HMC3 cells treated with 10 μM LXR agonist T0901317 for 24 hours were respectively used as negative and positive controls for ABCA1 signals. […] Data are expressed as mean±SEM.
# Subsequently, myelin debris from human brains was prepared and it was observed that the cholesterol/protein ratio, as well as the protein composition between mouse myelin debris and human myelin debris, were very similar. […]
# ACAT2 [3] = biological target: T2, ACAT2 (Homo sapiens (Human), UniProt O75908); settings: cited from earlier work
# T2 sequence (O75908 whole entry): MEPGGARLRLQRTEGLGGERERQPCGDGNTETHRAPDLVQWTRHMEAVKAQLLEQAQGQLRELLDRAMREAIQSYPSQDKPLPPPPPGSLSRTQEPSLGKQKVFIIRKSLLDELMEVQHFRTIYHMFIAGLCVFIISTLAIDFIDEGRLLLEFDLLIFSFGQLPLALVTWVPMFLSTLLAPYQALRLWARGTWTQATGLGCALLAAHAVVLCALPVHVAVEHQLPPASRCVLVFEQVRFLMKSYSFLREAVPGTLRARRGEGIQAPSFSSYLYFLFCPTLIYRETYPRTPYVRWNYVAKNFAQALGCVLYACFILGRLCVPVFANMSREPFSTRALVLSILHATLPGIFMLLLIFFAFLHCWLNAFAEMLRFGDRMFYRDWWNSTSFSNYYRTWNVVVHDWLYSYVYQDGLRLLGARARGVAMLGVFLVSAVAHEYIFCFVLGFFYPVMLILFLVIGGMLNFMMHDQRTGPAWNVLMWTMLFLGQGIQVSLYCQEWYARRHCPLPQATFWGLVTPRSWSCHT
# [4] = mice, orally administered; cited from earlier work
# [5] = in vivo; cited from earlier work
# primary cortical neurons = assay: Lactate dehydrogenase (LDH) toxicity assay
# Method: Cells were incubated in enriched neurobasal (NB) medium (Thermo Fisher Scientific, Waltham, MA) (500 mL NB media, 200 mM L-glutamine, B-27 with vitamin A, 1 mL penicillin-streptomycin (1%), and 340 mg glucose). Neurons were allowed to grow processes for 4-6 days prior to treatment.
# Lactate Dehydrogenase (LDH) Toxicity Assay. Primary cortical neurons were harvested and maintained as described above. […] After treatment, the conditioned media from the cells were collected, spun at 12,000 rpm for 30 minutes to remove cellular debris, supernatant transferred to new tube, and frozen at −80° C. until time of assay. Using Cytotoxicity Detection Kit (LDH) (Roche), media and reaction mixture were mixed, incubated for 30 minutes at room temperature protected from light, and the absorbance was measured at 490 nm.
# N9 microglial cells = assay: inflammatory responses to LPS in N9 microglial cells (qPCR, IκB-α western blot); type: cell-based, mouse; settings: 0.5 μM for 4 hours, then LPS 10-1000 ng/mL
# Method: Six hours later, mRNA was extracted, and qPCR was performed to monitor pro-inflammatory (FIG. 4A) or anti-inflammatory (FIG. 4B) gene expression. […] Thirty minutes later, proteins were extracted for western blot analysis for total IκB-α, and for phosphorylated […]<0.01.
# IL-4Rα [6] = assay: IL-4Rα expression in N9 microglial cells (immunoblot)
# Method: Cells were harvested for immunoblot analysis for IL-4Rα. Vinculin was the loading control. Data expressed as mean+/− SEM, * p<0.05, ** p<0.01.
# IL-4Rα expression was determined by convention methods. 25 μg/mL cholesterol equals 38 μg/mL total myelin debris protein. Data are expressed as mean±SEM. *P<0.05; **P<0.01.
# amyloidopathy = settings: in vivo; cited from earlier work
# ACAT1 [7] = biological target: T1, ACAT1; settings: cited from earlier work
# ACAT2 [8] = biological target: T2, ACAT2; settings: cited from earlier work; remark: listed apart in the source
# mouse ACAT1 = mouse ACAT1 (Mus musculus (Mouse), UniProt Q61263); assay: ACAT1 protein by western blot in microRNA-transfected NIH-3T3 mouse fibroblasts; type: cell-based; settings: for Relative Intensity (ACAT1 normalized to GAPDH): NIH-3T3, GFP-positive cells, 48 hours post-transfection; for reduction in ACAT1 protein content: mouse 3T3 fibroblasts, cDNA transfection
# Text: NIH-3T3 mouse fibroblasts were transiently transfected with one of several rAAV vectors encoding EmGFP and microRNA (miR) #52, #53, #54 or #55. Forty-eight hours post-transfection, GFP-positive cells were harvested by FACS. GFP-positive cells were washed then lysed in 10% SDS and syringe homogenized. Twenty microgram of protein per sample was subjected to SDS-PAGE. After western blot analysis, bands were quantified with ImageJ. ACAT1 intensity was normalized to GAPDH as a loading control and expressed as relative intensity.
# Four different siRNA molecules (#52-#55; Table 3) targeting the mouse Acat1 gene were inserted into an endogenous mouse microRNA (miR) scaffold using Invitrogen's RNAi design tool. The artificial miRs were ligated into the mammalian expression vector pcDNA6.2-GW/EmGFP-miR. […] The miRs were delivered to the cells using a standard cDNA transfection protocol.
molecule,measurement,setting,value
CCCCCCCCCCCCS(=O)(=O)[C@](F)(C(=O)Nc1cc(C)c(O)c(C)c1C)c1ccccc1 [Analog F26],brain permeability,ACAT,brain permeable
same,IC50,ACAT1 [1],13 nM
same,potency relative to F12511,ACAT1 [1],~3 times
CCCCCCCCCCCCS[C@H](C(=O)Nc1cc(C)c(O)c(C)c1C)c1ccccc1 [Analog F12511],brain permeability,ACAT,permeable to the brain
same,IL-4Rα protein content,IL-4Rα [2],IL-4Rα protein content increases
same,ABCA1 protein content,ABCA1,increased significantly
same,Ki,ACAT2 [3],110 nM
same,half-life in the blood,[4],1 to 2 h
same,clinical safety,[5],passed phase I clinical safety tests
same,cellular toxicity (LDH leakage),"primary cortical neurons; 24 hours, 2 μM to 100 μM","minimal, if any, toxicity"
same,cellular toxicity (LDH leakage),"primary cortical neurons; 48 hours, very high concentrations (near 100 μM)",slight increase in toxicity
same,cellular toxicity (LDH leakage),"primary cortical neurons; 72 hours, 10 μM",only very minimal toxicity
same,cellular toxicity (LDH leakage),"primary cortical neurons; 72 hours, high concentration (near 100 μM)",more toxicity was detected
"CSc1cc(C)nc(SC)c1NC(=O)CN1CCN(CCSc2nc3ccccc3[nH]2)CC1 [Analog K-604, 2-[4-[2-(benzimidazol-2-ylthio)ethyl]piperazin-1yl]-N-[2,4-bis(methylthio)-6-methyl-3-pyridyl]acetamide]",inflammatory responses to LPS,N9 microglial cells,attenuates inflammatory responses to LPS
same,enhancing effect on IL4R-α with myelin debris,"IL-4Rα [2]; HMC3 cells, mouse myelin debris, 21 hours",more robust
same,IL-4Rα protein content,IL-4Rα [2],IL-4Rα protein content increases
same,ABCA1 protein content,ABCA1,increased significantly
same,clinical safety,[5],passed phase I clinical safety tests
same,expression of the receptor IL-4Rα,IL-4Rα [6]; 0.5 μM for 4 or 12 hours,increases expression of the receptor IL-4Rα
same,enhancing effect on IL4R-α with myelin debris,"IL-4Rα [6]; mouse myelin debris, 21 hours",more robust
CC(C)c1cc(C(C)C)c(CC(=O)NS(=O)(=O)Oc2c(C(C)C)cccc2C(C)C)c(C(C)C)c1 [CI 1011],amyloidopathy in a mouse model for AD,amyloidopathy,reduce amyloidopathy
"CCCCCCCC[C@H](SCCCCCC)C(=O)Nc1c(SC)cc(C)nc1SC [CP113,818]",amyloidopathy in a mouse model for AD,amyloidopathy,reduce amyloidopathy and rescue cognitive deficits
CCOC(=O)OC(=O)OCC [diethyl pyrocarbonate],fold lower IC50 / greater activity for ACAT1 than for ACAT2,ACAT1 [7],4 fold
COc1ccc([C@@H](O)[C@@H](C)Oc2ccc([C@H]3O[C@H](c4ccc(O[C@H](C)[C@H](O)c5ccc6c(c5)OCO6)c(OC)c4)[C@H](C)[C@H]3C)cc2OC)cc1OC [manassantin B],inhibition of hACAT-2,ACAT2 [8]; at 1 mM,32%
miR #52: artificial microRNA targeting mouse ACAT1 sequence GGAGCTGAAGCCACTATTTAT (SEQ ID NO:1) (expressed or natural sequence; the letters are possibly those of the target site),Relative Intensity (ACAT1 normalized to GAPDH),mouse ACAT1,0.77
miR #53: artificial microRNA targeting mouse ACAT1 sequence CTGTTTGAAGTGGACCACATCA (SEQ ID NO:2) (expressed or natural sequence; the letters are possibly those of the target site),Relative Intensity (ACAT1 normalized to GAPDH),mouse ACAT1,0.56
"miR #54: artificial microRNA targeting mouse ACAT1 sequence CCCGGTTCATTCTGATACTGGA (SEQ ID NO:3) (expressed or natural sequence; target site or template, no part of the molecule)",Relative Intensity (ACAT1 normalized to GAPDH),mouse ACAT1,0.54
same,reduction in ACAT1 protein content,mouse ACAT1,50-60%
miR #55: artificial microRNA targeting mouse ACAT1 sequence AACTACCCAAGGACTCCTACTGTA (SEQ ID NO:4) (expressed or natural sequence; the letters are possibly those of the target site),Relative Intensity (ACAT1 normalized to GAPDH),mouse ACAT1,0.39
same,reduction in ACAT1 protein content,mouse ACAT1,50-60%
miR Negative Control: negative control miR (SEQ ID NO:9) which does not match any known vertebrate gene (TACTGCGCGTGGAGACG),Relative Intensity (ACAT1 normalized to GAPDH),mouse ACAT1,1.02
saucerneol B,IC50,"ACAT2 [8]; Lee et al. 2004, read-out: IC50 hACAT-2",124 µM
